# Measurements as given in patent publication US6958416B2, “Valproyltaurinamide derivatives as anticonvulsant amd CNS active agents” (Yissum Research Development Company of the Hebrew …, priority 2001, dated 2005).
# Read-outs that look alike come from different tables or passages of the source.
# Key:
# [1] = tested on: maximal electroshock seizure (MES); test: maximal electroshock seizure test (MES); type: in vivo; settings: rats; for ED50: Rattus norvegicus; for anticonvulsant activity in the MES test: result in words
# Text: (§1) The first model the maximal electroshock seizure test (MES), is used to show efficacy for antiepileptic agents against partial and generalized seizure type epilepsy, the common epilepsy among therapy resistant epileptic patients. The second model, the subcutaneous pentylenetetrazole test (s.c. Met) which measures seizure threshold and is a standard screening procedure to show efficacy for agents against […] seizures. In these studies, convulsions were inhibited or prevented after oral (p.o.) and intraperitoneal (ip) administration of the compounds.
# [2] = tested on: subcutaneous pentylenetetrazole induced convulsions (seizure threshold); test: subcutaneous pentylenetetrazole test (s.c. Met); type: in vivo; settings: rats, table title: oral administration; for ED50: Rattus norvegicus, read-out: sc Met ED50
# Text: as §1
# audiogenic seizures = audiogenic seizures in Frings audiogenic seizure susceptible mice; type: in vivo; settings: for potency compared with VPA in audiogenic seizure model: in words
# Procedure: In mice the compounds were tested for their ability to protect against audiogenic seizures in the Frings audiogenic seizure susceptible mice after ip administration. This model is considered as a good screening model in pharmacologic studies for CNS active compounds.
# 6 Hz psychomotor seizure = 6 Hz psychomotor seizure model; type: in vivo; settings: Mus musculus; mice ip, stimulation intensity 22 mA
# in vivo = test: in vivo
# Procedure: Neurotoxicity of the agents was assessed in rats (p.o. and ip administration) in the Gait and Stance test and in mice in the Rotarod Ataxia test, which assess minimal neurotoxicity.
# [3] = Pharmacokinetics in mongrel dogs; type: in vivo
# Procedure: The pharmacokinetics of Compound A were evaluated in mongrel dogs.
# [4] = po, p.o. administration, read-out: MES ED50 (mg/kg po)
structure (smiles),measurement,setting,value
"CCCC(CCC)C(=O)NCCS(N)(=O)=O [Compound A, N-(2-Propylpentanoyl)taurinamide]",ED50,[1]; [4],65 mg/kg
same,ED50,"[1]; ip administration, read-out: MES ED50 (mg/kg ip)",50 mg/kg
same,anticonvulsant activity in the MES test,[1],showed anticonvulsant activity
same,ED50,[2],> 250 mg/kg
same,ED50,"audiogenic seizures; Mus musculus, ip, ip administration",50 to 140 mg/kg
same,Audiogenic seizures ED50,audiogenic seizures; ip administration,51 mg/kg
same,audiogenic seizure ED50 compared with VPA,"audiogenic seizures; ip, relative to VPA",3 times lower
same,ED50,6 Hz psychomotor seizure,188 mg/kg
same,TD50 compared with VPA,"in vivo; rat, in vivo",significantly higher than TD50 for VPA
same,Neurotoxicity TD50 (mg/kg ip),"in vivo; rat, in vivo, ip",>300 mg/kg
same,TD50,"in vivo; rat, in vivo, ip",> 300 mg/kg
same,Neurotoxicity TD50 (mg/kg po),"in vivo; rat, in vivo, po",>500 mg/kg
same,TD50,"in vivo; rat, in vivo, po",> 500 mg/kg
same,half-life,"[3]; dog, in vivo",5.6 h
same,Vd,"[3]; dog, in vivo, read-out: Volume of distribution at steady state (Vss)",0.84 L/kg
same,clearance,"[3]; dog, in vivo, read-out: total body clearance (CL) (converted)",1.83 mL/min/kg
same,liver extraction ratio,[3]; in words,low
"CCCC(CCC)C(=O)NCCS(=O)(=O)N(C)C [B, N-(2-Propylpentanoyl)taurine-N′,N′-dimethylamide]",MES ED50 (mg/kg ip),[1]; ip administration,50 mg/kg
same,MES ED50 (mg/kg po),[1]; p.o. administration,>160 mg/kg
same,anticonvulsant activity in the MES test,[1],showed anticonvulsant activity
same,sc Met ED50,[2],>200 mg/kg
same,Audiogenic seizures ED50,audiogenic seizures; ip administration,134 mg/kg
same,potency compared with VPA in audiogenic seizure model,audiogenic seizures; ip,more potent than VPA
same,Neurotoxicity TD50 (mg/kg ip),"in vivo; rats, ip administration",175 mg/kg
same,TD50 compared with VPA,"in vivo; rats, in words",significantly higher than TD50 for VPA
CCCC(CCC)C(=O)NCCS(=O)(=O)NCC [N-(2-n-propylpentanoyl)taurine-N′-ethylamide],anticonvulsant activity in the MES test,[1],showed anticonvulsant activity
"CCCC(CCC)C(=O)NCCS(=O)(=O)NC(C)C [C, N-(2-Propylpentanoyl)taurine-N′-isopropylamide]",MES ED50 (mg/kg ip),[1]; ip administration,52 mg/kg
same,MES ED50 (mg/kg po),[1]; p.o. administration,63 mg/kg
same,anticonvulsant activity in the MES test,[1],showed anticonvulsant activity
same,sc Met ED50,[2],>250 mg/kg
same,Audiogenic seizures ED50,audiogenic seizures; ip administration,126 mg/kg
same,potency compared with VPA in audiogenic seizure model,audiogenic seizures; ip,more potent than VPA
same,Neurotoxicity TD50 (mg/kg ip),"in vivo; rats, ip administration",627 mg/kg
same,TD50 compared with VPA,"in vivo; rats, in words",significantly higher than TD50 for VPA
"CCCC(CCC)C(=O)NCCS(=O)(=O)N(CC)CC [N-(2-n-propylpentanoyl)taurine-N′,N′-diethylamide]",anticonvulsant activity in the MES test,[1],showed anticonvulsant activity
CCCC(CCC)C(=O)NCCS(=O)(=O)NC [N-(2-n-propylpentanoyl)taurine-N′-methylamide],anticonvulsant activity in the MES test,[1],showed anticonvulsant activity
"CCCC(CCC)C(=O)O [VPA, valproic acid, reference compound]",ED50,[1]; [4],490 mg/kg
same,ED50,[2],180 mg/kg
same,TD50,"in vivo; rat, in vivo, po",200 mg/kg
